Patent US20250059174A1, “Pharmaceutical Compounds and Compositions as C-Kit Kinase Inhibitors” (Enanta Pharmaceuticals, Inc., priority 2023, published 2025)

Tests used:
[1] = biological target: Recombinant human c-KIT kinase (Homo sapiens (Human), UniProt P10721); experiment: c-KIT kinase chemiluminescence assay (ADP-Glo); format: biochemical; conditions: ATP 50 μM
Procedure, shortened: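 ADP formed by c-KIT on polyEY over 2 h at RT (after 30 min enzyme preincubation; Tris pH 7.5, MgCl2, BSA, DTT buffer) was detected by ADP-Glo luminescence. IC50 and Hill slope were fitted to control-normalized activity across compound concentrations.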

[2] = tested on: M-07e cells; experiment: M-07e cellular assay (SCF-mediated cell proliferation); format: cell-based; conditions: Homo sapiens, 72 hours, CellTiter Glo
Procedure, shortened: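 Readout came from CellTiter Glo after 72 h of compound treatment in SCF (EC90)-stimulated, pre-starved M-07e cells at 37 °C.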

Sequence of Recombinant human c-KIT kinase (P10721 26-976): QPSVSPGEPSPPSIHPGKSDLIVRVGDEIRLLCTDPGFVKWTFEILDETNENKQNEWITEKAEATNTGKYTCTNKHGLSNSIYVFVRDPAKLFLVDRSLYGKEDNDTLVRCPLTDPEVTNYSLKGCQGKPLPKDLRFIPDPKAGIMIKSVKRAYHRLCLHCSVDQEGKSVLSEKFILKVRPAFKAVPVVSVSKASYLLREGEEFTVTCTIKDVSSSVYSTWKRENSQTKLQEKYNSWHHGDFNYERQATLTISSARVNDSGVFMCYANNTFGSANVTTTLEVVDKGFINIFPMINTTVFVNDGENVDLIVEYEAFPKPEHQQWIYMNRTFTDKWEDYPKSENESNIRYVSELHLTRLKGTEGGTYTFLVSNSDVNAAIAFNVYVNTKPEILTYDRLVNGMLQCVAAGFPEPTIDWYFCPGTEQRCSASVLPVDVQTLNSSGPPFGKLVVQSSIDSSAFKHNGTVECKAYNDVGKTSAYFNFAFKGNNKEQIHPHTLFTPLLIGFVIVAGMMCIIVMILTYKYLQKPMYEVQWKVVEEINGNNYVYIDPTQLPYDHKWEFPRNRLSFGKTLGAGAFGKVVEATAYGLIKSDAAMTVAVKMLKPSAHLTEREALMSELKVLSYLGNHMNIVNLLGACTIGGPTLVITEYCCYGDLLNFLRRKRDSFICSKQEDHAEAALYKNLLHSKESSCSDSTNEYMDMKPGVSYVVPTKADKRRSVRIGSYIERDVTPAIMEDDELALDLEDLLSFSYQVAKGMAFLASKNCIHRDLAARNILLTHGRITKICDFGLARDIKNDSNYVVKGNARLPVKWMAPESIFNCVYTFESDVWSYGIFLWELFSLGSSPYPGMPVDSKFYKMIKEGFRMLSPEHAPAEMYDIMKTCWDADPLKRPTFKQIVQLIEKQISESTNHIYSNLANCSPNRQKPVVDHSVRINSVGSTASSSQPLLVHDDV

Compound	IC50 [1]	EC50 [2]
Cc1ccc(-c2noc([C@H]3C[C@@H]3F)n2)cc1NC(=O)c1cnn2ccc(N3CC(COCc4ccccc4)(C(=O)OCc4ccccc4)C3)cc12 [Example 241-13]	> 1000 nM	> 1000 nM
Cc1ccc(-c2noc([C@H]3C[C@@H]3F)n2)cc1NC(=O)c1cnn2ccc(NCC3(C(=O)O)COC3)cc12 [Example 241-14]	100 to 1000 nM	> 1000 nM
Cc1ccc(-c2noc([C@H]3C[C@@H]3F)n2)cc1NC(=O)c1cnn2ccc(N3CC(CO)(C(=O)O)C3)cc12 [Example 241-16]	100 to 1000 nM	> 1000 nM
Cc1ccc(-c2noc([C@H]3C[C@H](OC(F)(F)F)C3)n2)cc1NC(=O)c1cnn2ccc(N3CC4(COC4)C3)cc12 [Example 245]	< 100 nM	< 100 nM
Cc1ccc(-c2noc([C@H]3C[C@@H](OC(C)C)C3)n2)cc1NC(=O)c1cnn2ccc(N3CC4(CN(CC(F)(F)F)C4)C3)cc12 [Example 246]	100 to 1000 nM	< 100 nM
Cc1ccc(-c2noc([C@H]3C[C@H](OC(F)F)C3)n2)cc1NC(=O)c1cnn2ccc(N3CC4(COC4)C3)cc12 [Example 247]	< 100 nM	< 100 nM
Cc1ccc(-c2noc([C@H]3C[C@@H](OC(F)F)C3)n2)cc1NC(=O)c1cnn2ccc(N3CC4(CCN(CC(F)F)C4)C3)cc12 [Example 248]	100 to 1000 nM	< 100 nM
Cc1ccc(-c2noc(C34CC(F)(C3)C4)n2)cc1NC(=O)c1cnn2ccc(N3CC4(COC4)C3)cc12 [Example 249]	< 100 nM	< 100 nM
Cc1ccc(-c2noc([C@H]3C[C@@H](OC(F)F)C3(C)C)n2)cc1NC(=O)c1cnn2ccc(N3CC4(COC4)C3)cc12 [Example 250]	< 100 nM	100 to 1000 nM
Cc1ccc(-c2noc([C@H]3C[C@@H](OC(F)(F)F)C3)n2)cc1NC(=O)c1cnn2ccc(N3CC4(CCN(CC(F)F)C4)C3)cc12 [Example 251]	100 to 1000 nM	100 to 1000 nM
Cc1ccc(-c2noc([C@H]3C[C@@H](OC(F)(F)F)C3)n2)cc1NC(=O)c1cnn2ccc(N3CC4(CCN(CC(F)(F)F)C4)C3)cc12 [Example 252]	100 to 1000 nM	100 to 1000 nM
Cc1ccc(-c2noc([C@H]3C[C@@H](OC(F)F)C3)n2)cc1NC(=O)c1cnn2ccc(N3CC4(CCN(CC(F)(F)F)C4)C3)cc12 [Example 253]	100 to 1000 nM	100 to 1000 nM
Cc1ccc(-c2noc([C@H]3C[C@@H](OC(F)F)C3(C)C)n2)cc1NC(=O)c1cnn2ccc(N3CC4(CCN(CC(F)(F)F)C4)C3)cc12 [Example 254]	100 to 1000 nM	100 to 1000 nM

Second part, led by results:

IC50 [1]	Compound	EC50 [2]
< 100 nM	Cc1ccc(-c2noc([C@H]3C[C@@H]3F)n2)cc1NC(=O)c1cnn2ccc(N3CC(C(=O)NC4CC4)C3)cc12 [Example 241-10]	< 100 nM
< 100 nM	Cc1ccc(-c2noc([C@H]3C[C@@H]3F)n2)cc1NC(=O)c1cnn2ccc(N3CC(C(=O)N4CC(F)(F)C4)C3)cc12 [Example 241-11]	< 100 nM
< 100 nM	Cc1ccc(-c2noc([C@H]3C[C@@H]3F)n2)cc1NC(=O)c1cnn2ccc(N3CC4(CN(C(=O)C5CC(F)(F)C5)C4)C3)cc12 [Example 241-12]	< 100 nM
< 100 nM	Cc1ccc(-c2noc([C@H]3C[C@@H]3F)n2)cc1NC(=O)c1cnn2ccc(N3CC4(CN(C(=O)C(F)(F)F)C4)C3)cc12 [Example 241-15]	< 100 nM
< 100 nM	Cc1ccc(-c2noc([C@H]3C[C@@H]3F)n2)cc1NC(=O)c1cnn2ccc(N3CCOCC3)cc12 [Example 241]	< 100 nM
< 100 nM	Cc1ccc(-c2noc([C@H]3C[C@@H](OC(F)(F)F)C3)n2)cc1NC(=O)c1cnn2ccc(N3CC4(COC4)C3)cc12 [Example 243]	< 100 nM
< 100 nM	Cc1ccc(-c2noc([C@H]3C[C@@H](OC(F)(F)F)C3)n2)cc1NC(=O)c1cnn2ccc(N3CC4(CN(CC(F)(F)F)C4)C3)cc12 [Example 244]	< 100 nM
